Measured values from patent US20220054559A1, “COMPOSITIONS AND METHODS FOR ENHANCING EXERCISE ENDURANCE” (PRESIDENT AND FELLOWS OF HARVARD COLLEGE, priority 2019, published 2022).
“Also recorded” adds a separate entry of the source.

How the values were obtained:
Format in all cases: in vivo, mouse
[1] = tested on: mice; assay: Colorectal propionate instillation, treadmill run to exhaustion; settings: 200 μL 150 mM sodium propionate in PBS into the colon 30 minutes prior to exercise, n=8, P=0.03
Description: (§1) Treadmilling followed the same protocol as above. Mice were fasted 7 hours prior to exercise, to normalize metabolic profiles. 30 minutes prior to exercise, mice were treated with 200 μL of either PBS vehicle alone (n=8) or 150 mM sodium propionate in PBS (n=8) using a flexible gavage needle to introduce 200 μL of solution into the colon. Mice were run to exhaustion as above. This protocol was repeated for 3 consecutive days. On the first day of treatment, serum was collected 40 minutes post-exhaustion via tail-vein bleed and measured using the Ciraplex™ multiplex mouse cytokine assay (Aushon BioSystems™)

[2] = tested on: inflammatory cytokines; assay: Serum inflammatory cytokines after treadmill run, intrarectal propionate; settings: serum taken 40 minutes after treadmill running, intrarectal propionate versus vehicle
Description: as §1

[3] = 13C3-lactate flux tracing after tail-vein injection (LC-MS)
Description: It was next determined whether systemic lactate is capable of crossing the epithelial barrier into the gut lumen. […] At sacrifice, serum and plasma were immediately collected following cardiac puncture, and intestinal luminal contents were collected by removing the colon and cecum from the mice and gently sampling the inner surface of the tissue.
20% w/w ^13C3 sodium lactate (Cambridge Isotope Laboratories™) was diluted with PBS to a concentration of 400 mM in PBS. […] […] […] Whole blood was divided into two samples to obtain both serum and plasma, which was flash frozen in liquid nitrogen and stored at −80° C.
Immediately following cardiac puncture, mice were dissected to remove colon and cecum, and the contents were removed by squeezing with sterilized forceps into pre-weighed tubes. Contents were immediately flash frozen in liquid nitrogen. […]
Samples were analyzed for lactate and propionate by a Metabolomics Platform. LC-MS metabolomics were performed as previously described. 23 LC-MS traces were identified and integrated to quantify presence of ^13C0- and ^13C3-lactate isotopes.

[4] = 100 μL of 400 mM intravenously via tail vein, sacrifice 12 minutes after injection, LC-MS

Structure (SMILES) | treadmill runtime versus pH-matched placebo vehicle [1] | serum inflammatory cytokine levels [2] | 13C3-labelled lactate detected in tissues [3, 4] | 13C3-labelled propionate detected in tissues [3, 4] | earliest time at which serum lactate levels returned to baseline after tail-vein injection ([3]; tail-vein injection)
CCC(=O)[O-].[Na+] [propionate, sodium propionate] | increased treadmill runtime; also recorded: improves maximum run time | no significant differences in cytokine levels were found | – | – | –
[13CH3][13CH](O)[13C](=O)[O-].[Na+] (centres unmarked) [^13C3 sodium lactate] | – | – | present in both the serum and plasma as well as in the lumen of the colons and ceca | No ^13C3-labelled propionate was detected in these tissues | 12 min
